In general, IC50 refers to the point on the concentration scale where inhibition reaches its midpoint.

For assay [1], the system named is lethal effects of LPS in mice. As to the kind of experiment: Survival of mice injected with a lethal dose of LPS. Format: in vivo. The following applies: 400 μgr LPS; for Survival rate, administration up to 1 hour after LPS: peptide up to 1 hour after LPS; for Survival rate at the end of the experiment: simultaneous 5 nmol peptide, 4-day period. On the procedure:
FIG. 6 represents the survival of mice injected with 400 μgr. of LPS and, either simultaneously or after 30 minutes, 1 or 4 hours, with 5 nmol. of VIP or PACAP. A. Control; B: VIP a 0 h.; C: VIP a 0.5 h; D: VIP a 1 h.; E: VIP a 4 h.;
An experiment was carried out in which the survival over a 4-day period was studied of mice that had been injected with 400 μgr. of LPS. The mortality in these circumstances was 100% after 36 hours. With simultaneous administration of 5 nmol. of VIP or PACAP a survival rate of 60% was attained at the end of the experiment. Administration of neuropeptides up to 1 hour after injection with LPS still gave survival rates near to 50%.

The test system of a further assay is circulating IL-6. The assay is described as follows: Levels of circulating IL-6 in mice after injection of LPS. Format: in vivo. The conditions noted are these: 2 hours after 25 μgr LPS, simultaneous 5 nmol peptide. On the procedure:
In an experiment carried out with mice the levels of circulating IL-6 2 hours after injection of 25 μgr. of LPS approach 1.5 ngr./ml Simultaneous administration of 5 nmol of VIP or PACAP reduced said levels by 60% and 75% respectively.

A further assay relates to mRNA of IL-6. The assay is described as follows: Northern blot for IL-6 mRNA in LPS-activated macrophages. The format is cell-based, Mouse. The following applies: macrophages activated with LPS and exposed to peptide. On the procedure: (§1) Mouse macrophages were submitted to the experimental conditions of examples 1 and 3 and their mRNA isolated. This was then analysed using the Northern Blot technique to detect mRNA of TNFα and IL-6.

For assay [2], the system named is TNFα production in peritoneal murin macrophages stimulated with LPS. The assay is described as follows: Production of TNFα by peritoneal murine macrophages stimulated with LPS. The format is cell-based, mouse. The conditions noted are these: for Inhibitory effect on TNFα production when added after 4 hours: peptide added 4 hours after LPS; for Inhibitory effect on TNFα production when added up until 1 hour after LPS stimulation: peptide added up until 1 hour after LPS, compared with simultaneous addition; for IC50: peritoneal murin macrophages stimulated with LPS, read-out: IC50 for inhibition of TNFα production; for Highest degree of inhibition of TNFα production: peritoneal murin macrophages, LPS 1 to 10 ng/ml. On the procedure:
FIG. 1 represents the production of TNFα by murin macrophages in culture (5×10^5 […]) stimulated with 10 ngr/ml of LPS in presence or absence of 10^−8 M of VIP or PACAP over a period of 24 hours.
FIG. 2 represents the production of TNFα by murin macrophages in culture (5×10^5 cells/ml) after 6 hours of culture with 10 ngr/ml of LPS and to which 10^−8 M of VIP or PACAP is added at different times.
In experiments carried out in vitro VIP and PACAP inhibit the production of TNFα in peritoneal murin macrophages stimulated with LPS. The highest degree of inhibition reaches levels near to 60% and occurs with doses of stimulation between 1 and 10 ng/ml of LPS. The IC50 is around 80 pM, both for VIP and for PACAP and the effect was observed until the end of the experiment (see FIG. 1). The inhibitory effect is the same if both neuropeptides are added up until 1 hour after stimulating the macrophages with LPS, although it reduces progressively until disappearing if added after 4 hours (see FIG. 2).

In assay [3] the test system is IL-6 production in peritoneal murin macrophages stimulated with LPS. As to the kind of experiment: Production of IL-6 by peritoneal murine macrophages stimulated with LPS. Format: cell-based, mouse. The conditions noted are these: for Degree of inhibition of IL-6 production when added after stimulation with LPS: peptide added at different times after LPS; for IC50: peritoneal murin macrophages stimulated with LPS, read-out: IC50 for inhibition of IL-6 production; for Highest degree of inhibition of IL-6 production: peritoneal murin macrophages, LPS 10 ngr./ml. As to the method:
FIG. 3 represents the production of IL-6 by murin macrophages in culture (5×10^5 cells/ml) stimulated with 10 ngr/ml of LPS in presence or absence of 10^−8 M of VIP or PACAP over a period of 24 hours.
FIG. 4 represents the production of IL-6 by murin macrophages in culture (5×10^5 cells/ml) after 6 hours of culture with 10 ngr/ml of LPS and to which 10^−8 M of VIP or PACAP is added at different times.
In experiments carried out in vitro VIP and PACAP inhibit the production of IL-6 in peritoneal murin macrophages stimulated with LPS. The highest degree of inhibition reaches levels near to 90% and occurs with doses of stimulation of 10 ngr./ml of LPS.

The next assay relates to mRNA of TNFα. The assay is described as follows: Northern blot for TNFα mRNA in LPS-activated macrophages. Format: cell-based, Mouse. The conditions noted are these: macrophages activated with LPS and exposed to peptide. As to the method: as §1
In another assay the test system is circulating TNFα. As to the kind of experiment: Levels of circulating TNFα in mice after injection of LPS. The conditions noted are these: 2 hours after 25 μgr LPS, simultaneous 5 nmol peptide. The format is in vivo. On the procedure:
In an experiment carried out with mice the levels of circulating TNFα 2 hours after injection of 25 μgr. of LPS approach 4 ngr./ml. Simultaneous administration of 5 nmol of VIP or PACAP reduced said levels by 60%.

On to “PACAP [two molecular forms PACAP-38 and PACAP-27]”, for which, in assay [1], the “Survival rate, administration up to 1 hour after LPS” value is reported as about 50% and the “Survival rate at the end of the experiment” value was determined as 60%. For the same substance, the “Reduction of circulating IL-6 levels” value with circulating IL-6 amounted to 75%. The “Transcripts for IL-6 (Northern blot)” value with mRNA of IL-6 was “absence of transcripts”. Further, in assay [2], the “Inhibitory effect on TNFα production when added after 4 hours” value is “disappearing”, the “Inhibitory effect on TNFα production when added up until 1 hour after LPS stimulation” value is listed as “the same”, the half-inhibitory concentration (IC50) was about 0.08 nM and the “Highest degree of inhibition of TNFα production” value is about 60%. Moreover, in assay [3], the “Degree of inhibition of IL-6 production when added after stimulation with LPS” value was “progressively less”, the 50% inhibitory concentration (IC50) was 0.0086 nM and the “Highest degree of inhibition of IL-6 production” value is about 90%. Also, the “Transcripts for TNFα (Northern blot)” value in the assay on mRNA of TNFα was “absence of transcripts”. For the same substance, the “Reduction of circulating TNFα levels” value in the assay on circulating TNFα came out at 60%.

Turning to HSDAVFTDNYTRLRKMAVKKYLNSILN [VIP], in assay [1], the “Survival rate, administration up to 1 hour after LPS” value is about 50% and the “Survival rate at the end of the experiment” value is 60%. Moreover, the “Reduction of circulating IL-6 levels” value in the assay on circulating IL-6 came to 60%. In addition, the “Transcripts for IL-6 (Northern blot)” value with mRNA of IL-6 was “absence of transcripts”. In addition, in assay [2], the “Inhibitory effect on TNFα production when added after 4 hours” value is reported as “disappearing”, the “Inhibitory effect on TNFα production when added up until 1 hour after LPS stimulation” value is on record as “the same”, the IC50 was about 0.08 nM and the “Highest degree of inhibition of TNFα production” value was about 60%. Also, in assay [3], the “Degree of inhibition of IL-6 production when added after stimulation with LPS” value was “progressively less”, the half-maximal inhibitory concentration (IC50) is 0.0086 nM and the “Highest degree of inhibition of IL-6 production” value is about 90%. Also, the “Transcripts for TNFα (Northern blot)” value in the assay with mRNA of TNFα is listed as “absence of transcripts”. Moreover, the “Reduction of circulating TNFα levels” value in the assay on circulating TNFα is 60%.

(Values after patent US6429188B1, “Method for treating the endotoxic shock in mammals” (Universidad Complutense de Madrid, priority 1998, dated 2002).)
